Common to all, as to type: cell-based
For experiment [1], the system named is Staphylococcus aureus ATCC 29213 (MSSA). Briefly: Broth microdilution MIC, S. aureus ATCC 29213 (MSSA). The settings on record: read-out: MIC S. aureus ATCC 29213 (MSSA). The gist of the method:
(§1)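 Broth microdilution in strain-specific test medium with ~5.0×10^5 cfu/ml inoculum, 1% DMSO and two-fold compound dilutions from 64 to 0.0625 μg/ml. Plates were held 20 hours at 37° C in ambient air. S. pneumoniae colonies were grown beforehand on blood agar in 5% CO2.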

The subject of experiment [2] is Streptococcus pneumoniae ATCC 49619. Nature of the experiment: Broth microdilution MIC, S. pneumoniae ATCC 49619. The settings on record: read-out: MIC S. pneumoniae ATCC 49619. The gist of the method: as §1
In experiment [3] the test system is Bacillus subtilis ATCC 6633. Briefly: Broth microdilution MIC, B. subtilis ATCC 6633. The settings on record: read-out: MIC B. subtilis ATCC 6633. The gist of the method:
as §1

The subject of experiment [4] is Staphylococcus aureus NRS384 (MRSA). Nature of the experiment: Broth microdilution MIC, S. aureus NRS384 (MRSA). The note with it: Staphylococcus aureus, read-out: MIC NRS 384 (MRSA). A digest of the protocol: as §1
The test system of experiment [5] is Enterococcus faecalis ATCC 29212. Nature of the experiment: Broth microdilution MIC, E. faecalis ATCC 29212. The settings on record: read-out: MIC E. faecalis ATCC 29212. The gist of the method: as §1
Experiment [6] concerns Escherichia coli ATCC 25922. Briefly: Broth microdilution MIC, E. coli ATCC 25922 (MHIIB w & w/o 4 mM EDTA). The note with it: for MIC: Escherichia coli, read-out: MIC E. coli ATCC 25922; for MIC E. coli ATCC 25922 + 4 mM EDTA: with 4 mM EDTA. A digest of the protocol:
as §1

In experiment [7] the test system is Enterococcus faecium ATCC 700221 (VRE). Briefly: Broth microdilution MIC, E. faecium ATCC 700221 (VRE). The settings on record: Enterococcus faecium, read-out: MIC E. faecium ATCC 700221 (VRE). The gist of the method:
as §1

[8] abbreviates: broth microdilution, 37° C., 20 hours.
Setting [9] is: ATCC49619, broth microdilution, 37° C., 20 hours.
Setting [10] is: ATCC6633, broth microdilution, 37° C., 20 hours.
[11] abbreviates: ATCC29212, broth microdilution, 37° C., 20 hours.
Setting [12] is: ATCC25922, without EDTA, broth microdilution, 37° C., 20 hours.
Setting [13] is: S. aureus NRS 384, broth microdilution, 37° C., 20 hours.

Each structure is given as a SMILES string. In brackets after ≈: the same amount, converted by molar mass. Like-named read-outs stand apart in the source and are kept apart here.

With `Cl.O=C([C@@H]1C[C@@H](O)CN1)N1CCC(n2ncc3nc(NCc4ccc(Cl)c(Cl)c4)[nH]c(=O)c32)CC1` [Compound 274, 5-((3,4-dichlorobenzyl)amino)-1-(1-((2S,4R)-4-hydroxypyrrolidine-2-carbonyl)piperidin-4-yl)-1H-pyrazolo[4,3-d]pyrimidin-7(6H)-one hydrochloride], the MIC in experiment [1] (setting [8]) is 32 µg/mL; in experiment [2] (setting [9]), 16 µg/mL; in experiment [3] (setting [10]) it was 16 µg/mL; in experiment [4] (setting [8]), 64 µg/mL; in experiment [5] (setting [11]), 64 µg/mL; in experiment [6] (setting [12]), > 64 µg/mL. Also, in experiment [7] (setting [8]), the minimal inhibitory concentration (MIC) was 16 µg/mL. Besides, in experiment [6] (setting [8]), the “MIC E. coli ATCC 25922 + 4 mM EDTA” value is >64 µg/mL.
Consider `O=c1[nH]c(NCc2ccc(Cl)c(Cl)c2)nc2cnn(CCOCCOP(=O)(O)O)c12` [Compound 296, 2-(2-(5-((3,4-dichlorobenzyl)amino)-7-oxo-6,7-dihydro-1H-pyrazolo[4,3-d]pyrimidin-1-yl)ethoxy)ethyl dihydrogen phosphate], for which the MIC is > 64 µg/mL in experiment [1] (setting [8]); 8 µg/mL in experiment [2] (setting [9]); 32 µg/mL in experiment [3] (setting [10]); > 64 µg/mL in experiment [4] (setting [13]); > 64 µg/mL in experiment [5] (setting [11]); > 64 µg/mL in experiment [6] (setting [12]). The MIC in experiment [7] (setting [8]) was determined as 64 µg/mL. Moreover, the “MIC E. coli ATCC 25922 + 4 mM EDTA” value in experiment [6] (setting [8]) was >64 µg/mL.
Turning to `O=c1[nH]c(NCc2ccc(Cl)c(Cl)c2)nc2c(Cl)n[nH]c12` [Compound 55, 3-Chloro-5-[(3,4-dichlorophenyl)methylamino]-1,6-dihydropyrazolo[4,3-d]pyrimidin-7-one], the MIC was 4 µg/mL (≈ 11.6 µM) in experiment [1] (setting [8]); 8 µg/mL (≈ 23.2 µM) in experiment [2] (setting [9]); 2 µg/mL (≈ 5.8 µM) in experiment [3] (setting [10]); 4 µg/mL (≈ 11.6 µM) in experiment [4] (setting [8]); 8 µg/mL (≈ 23.2 µM) in experiment [5] (setting [11]); > 64 µg/mL in experiment [6] (setting [12]). Further, the MIC in experiment [7] (setting [8]) stood at 4 µg/mL (≈ 11.6 µM). In addition, in experiment [6] (setting [8]), the “MIC E. coli ATCC 25922 + 4 mM EDTA” value was 64 µg/mL.
Turning to `Cl.O=C(c1ccncc1)N1CCC(n2ncc3nc(NCc4ccc(Cl)c(Cl)c4)[nH]c(=O)c32)C1` (centres unmarked) [Compound 259, 5-[(3,4-Dichlorophenyl)methylamino]-1-[1-(pyridine-4-carbonyl)pyrrolidin-3-yl]-6H-pyrazolo[4,3-d]pyrimidin-7-one], the MIC is 8 µg/mL in experiment [1] (setting [8]); 4 µg/mL in experiment [2] (setting [9]); 2 µg/mL in experiment [3] (setting [10]); 8 µg/mL in experiment [4] (setting [8]); 4 µg/mL in experiment [5] (setting [11]); > 64 µg/mL in experiment [6] (setting [12]). Moreover, in experiment [7] (setting [8]), the MIC was found to be 4 µg/mL. Moreover, the “MIC E. coli ATCC 25922 + 4 mM EDTA” value in experiment [6] (setting [8]) was >64 µg/mL.
Turning to `Cn1ncc2nc(NCc3ncc[nH]3)[nH]c(=O)c21` [Compound 22, 5-(((1H-imidazol-2-yl)methyl)amino)-1-methyl-1H-pyrazolo[4,3-d]pyrimidin-7(6H)-one], the MIC in experiment [1] (setting [8]), in experiment [2] (setting [9]), in experiment [3] (setting [10]), in experiment [4] (setting [8]), in experiment [5] (setting [11]) and in experiment [6] (setting [12]) was > 64 µg/mL in each case. For the same compound, the MIC in experiment [7] (setting [8]) was > 64 µg/mL. Moreover, in experiment [6] (setting [8]), the “MIC E. coli ATCC 25922 + 4 mM EDTA” value is >64 µg/mL.
Take `CN1CCN(CCn2ncc3nc(NCc4ccc(Cl)c(Cl)c4)[nH]c(=O)c32)CC1=O` [Compound 60, 5-((3,4-Dichlorobenzyl)amino)-1-(2-(4-methyl-3-oxopiperazin-1-yl)ethyl)-1H-pyrazolo[4,3-d]pyrimidin-7(6H)-one]: the MIC was 8 µg/mL (≈ 17.8 µM) in experiment [1] (setting [8]); 4 µg/mL (≈ 8.88 µM) in experiment [2] (setting [9]); 4 µg/mL (≈ 8.88 µM) in experiment [3] (setting [10]); 8 µg/mL (≈ 17.8 µM) in experiment [4] (setting [8]); 8 µg/mL (≈ 17.8 µM) in experiment [5] (setting [11]); > 64 µg/mL in experiment [6] (setting [12]). The MIC in experiment [7] (setting [8]) turned out to be 2 µg/mL (≈ 4.44 µM). In addition, the “MIC E. coli ATCC 25922 + 4 mM EDTA” value in experiment [6] (setting [8]) is >64 µg/mL.
For `O=c1[nH]c(NCc2ccc(Cl)c(Cl)c2)nc2c(F)nn(Cc3cocn3)c12` [Compound 306, 5-((3,4-Dichlorobenzyl)amino)-3-fluoro-1-(oxazol-4-ylmethyl)-1H-pyrazolo[4,3-d]pyrimidin-7(6H)-one], the MIC is 2 µg/mL (≈ 4.89 µM) in experiment [1] (setting [8]); 4 µg/mL (≈ 9.77 µM) in experiment [2] (setting [9]); 0.5 µg/mL (≈ 1.22 µM) in experiment [3] (setting [10]); 2 µg/mL (≈ 4.89 µM) in experiment [4] (setting [13]); 2 µg/mL (≈ 4.89 µM) in experiment [5] (setting [11]); > 64 µg/mL in experiment [6] (setting [12]). Moreover, the MIC in experiment [7] (setting [8]) worked out at 1 µg/mL (≈ 2.44 µM). For the same compound, in experiment [6] (setting [8]), the “MIC E. coli ATCC 25922 + 4 mM EDTA” value was >64 µg/mL.
As for `CC(C)OC(=O)CCCCn1ncc2nc(NCc3ccc(Cl)c(Cl)c3)[nH]c(=O)c21` [Compound 204, isopropyl 5-(5-((3,4-dichlorobenzyl)amino)-7-oxo-6,7-dihydro-1H-pyrazolo[4,3-d]pyrimidin-1-yl)pentanoate], the MIC was 4 µg/mL (≈ 8.84 µM) in experiment [1] (setting [8]); 16 µg/mL (≈ 35.4 µM) in experiment [2] (setting [9]); 1 µg/mL (≈ 2.21 µM) in experiment [3] (setting [10]); 2 µg/mL (≈ 4.42 µM) in experiment [4] (setting [8]); > 64 µg/mL in experiment [5] (setting [11]); > 64 µg/mL in experiment [6] (setting [12]). The MIC in experiment [7] (setting [8]) was 2 µg/mL (≈ 4.42 µM). Moreover, in experiment [6] (setting [8]), the “MIC E. coli ATCC 25922 + 4 mM EDTA” value was >64 µg/mL.
As to `COP(=O)(O)OCCOCCn1ncc2nc(NCc3ccc(Cl)c(Cl)c3)[nH]c(=O)c21` [Compound 298, 2-(2-(5-((3,4-Dichlorobenzyl)amino)-7-oxo-6,7-dihydro-1H-pyrazolo[4,3-d]pyrimidin-1-yl)ethoxy)ethyl methyl hydrogen phosphate], the MIC in experiment [1] (20 h) is > 64 µg/mL; in experiment [2] (ATCC49619, 20 h) it was > 64 µg/mL; in experiment [3] (ATCC6633, 20 h), > 64 µg/mL; in experiment [4] (20 h), > 64 µg/mL; in experiment [5] (ATCC29212, 20 h), > 64 µg/mL; in experiment [6] (ATCC25922, 20 h) it was > 64 µg/mL. Besides, in experiment [7] (20 h), the MIC was > 64 µg/mL. For the same compound, the “MIC E. coli ATCC 25922 + 4 mM EDTA” value in experiment [6] (setting [8]) is >64 µg/mL.
`Cl.O=c1[nH]c(NCc2ccc(Cl)c(Cl)c2)nc2cnn(CCOCc3nn[nH]n3)c12` [Compound 282, 1-(2-((2H-tetrazol-5-yl)methoxy)ethyl)-5-((3,4-dichlorobenzyl)amino)-1H-pyrazolo[4,3-d]pyrimidin-7(6H)-one hydrochloride]: the MIC in experiment [1] (setting [8]), in experiment [2] (setting [9]), in experiment [3] (setting [10]), in experiment [4] (setting [8]), in experiment [5] (setting [11]) and in experiment [6] (setting [12]) was > 64 µg/mL throughout. Further, the minimal inhibitory concentration (MIC) in experiment [7] (setting [8]) was > 64 µg/mL. Further, the “MIC E. coli ATCC 25922 + 4 mM EDTA” value in experiment [6] (setting [8]) was >64 µg/mL.
Take `Cl.O=C(O)C1CC(n2ncc3nc(NCc4ccc(Cl)c(Cl)c4)[nH]c(=O)c32)CN1` (centres unmarked) [Compound 151, 4-(5-((3,4-dichlorobenzyl)amino)-7-oxo-6,7-dihydro-1H-pyrazolo[4,3-d]pyrimidin-1-yl)pyrrolidine-2-carboxylic acid hydrochloride]: the MIC is > 64 µg/mL in experiment [1] (setting [8]); 64 µg/mL in experiment [2] (setting [9]); > 64 µg/mL in experiment [3] (setting [10]); > 64 µg/mL in experiment [4] (setting [8]); > 64 µg/mL in experiment [5] (setting [11]); > 64 µg/mL in experiment [6] (setting [12]). In experiment [7] (setting [8]), the MIC is > 64 µg/mL. Also, the “MIC E. coli ATCC 25922 + 4 mM EDTA” value in experiment [6] (setting [8]) is >64 µg/mL.
On to `CCOC(=O)C1(Cn2ncc3nc(NCc4ccc(Cl)c(Cl)c4)[nH]c(=O)c32)CCNCC1.Cl` [Compound 194, ethyl 4-((5-((3,4-dichlorobenzyl)amino)-7-oxo-6,7-dihydro-1H-pyrazolo[4,3-d]pyrimidin-1-yl)methyl)piperidine-4-carboxylate hydrochloride], for which the MIC was 64 µg/mL in experiment [1] (setting [8]); 16 µg/mL in experiment [2] (setting [9]); 8 µg/mL in experiment [3] (setting [10]); > 64 µg/mL in experiment [4] (setting [8]); 32 µg/mL in experiment [5] (setting [11]); > 64 µg/mL in experiment [6] (setting [12]). Moreover, in experiment [7] (setting [8]), the MIC was 32 µg/mL. Also, the “MIC E. coli ATCC 25922 + 4 mM EDTA” value in experiment [6] (setting [8]) was 64 µg/mL.
With `COCCOCn1ncc2nc(NCc3ccc(Cl)c(Cl)c3)[nH]c(=O)c21` [Compound 138, 5-((3,4-dichlorobenzyl)amino)-1-((2-methoxyethoxy)methyl)-1H-pyrazolo[4,3-d]pyrimidin-7(6H)-one], the MIC in experiment [1] (setting [8]) was 2 µg/mL (≈ 5.02 µM); in experiment [2] (setting [9]), 2 µg/mL (≈ 5.02 µM); in experiment [3] (setting [10]), 1 µg/mL (≈ 2.51 µM); in experiment [4] (setting [8]), 2 µg/mL (≈ 5.02 µM); in experiment [5] (setting [11]) it was 4 µg/mL (≈ 10 µM); in experiment [6] (setting [12]) it was > 64 µg/mL. Also, the minimum inhibitory concentration (MIC) in experiment [7] (setting [8]) came out at 2 µg/mL (≈ 5.02 µM). For the same compound, the “MIC E. coli ATCC 25922 + 4 mM EDTA” value in experiment [6] (setting [8]) was >64 µg/mL.

The values are drawn from US10723741B1, “DNA polymerase IIIC inhibitors and use thereof” (Acurx Pharmaceuticals, LLC, priority 2018, dated 2020).
